This note sets out measurements from ChEMBL document CHEMBL1128489, “Novel hexakis(areneisonitrile)technetium(I) complexes as radioligands targeted to the multidrug resistance P-glycoprotein” (J Med Chem, 1995).

What all share (settings): in vivo, 0.5 h
Series [1] deals with Rattus norvegicus. As to the kind of experiment: Biodistribution values represent the mean % id/organ for paired rats 30 min post intravenous injection complex in Spleen. Type of series: ADME, organism-based.
The test system of series [2] is Rattus norvegicus. As to the kind of experiment: Biodistribution values represent the mean % id/organ for paired rats 30 min post intravenous injection complex in Adrenal. It is filed as ADME, organism-based.
Series [3] concerns Rattus norvegicus. Briefly: Biodistribution values represent the mean % id/organ for paired rats 30 min post intravenous injection complex in Kidney. It is filed as ADME, organism-based.
The subject of series [4] is Rattus norvegicus. Briefly: Biodistribution values represent the mean % id/organ for paired rats 30 min post intravenous injection complex in GI. It is filed as ADME, organism-based.
Series [5] relates to Rattus norvegicus. Briefly: Biodistribution values represent the mean % id/organ for paired rats 30 min post intravenous injection complex in Bone. It is filed as ADME, organism-based, Bone element.
Series [6] deals with Rattus norvegicus. Briefly: Biodistribution values represent the mean % id/organ for paired rats 30 min post intravenous injection complex in Heart. It is filed as ADME, organism-based.
Series [7] relates to Rattus norvegicus. Briefly: Biodistribution values represent the mean % id/organ for paired rats 30 min post intravenous injection complex in Lungs. It is filed as ADME, organism-based, Lung.
Series [8] deals with Rattus norvegicus. As to the kind of experiment: Biodistribution values represent the mean % id/organ for paired rats 30 min post intravenous injection complex in Skin. It is filed as ADME, organism-based.
The test system of series [9] is Rattus norvegicus. As to the kind of experiment: Biodistribution values represent the mean % id/organ for paired rats 30 min post intravenous injection complex in Fat. Type of series: ADME, organism-based.
Series [10] relates to Rattus norvegicus. As to the kind of experiment: Biodistribution values represent the mean % id/organ for paired rats 30 min post intravenous injection complex in Brain. It is filed as ADME, organism-based.
Series [11] has as its system Rattus norvegicus. Briefly: Biodistribution values represent the mean % id/organ for paired rats 30 min post intravenous injection complex in Liver. It is filed as ADME, organism-based.
For series [12], the system named is Rattus norvegicus. Briefly: Biodistribution values represent the mean % id/organ for paired rats 30 min post intravenous injection complex in Blood. It is filed as ADME, organism-based.
Series [13] deals with Rattus norvegicus. As to the kind of experiment: Biodistribution values represent the mean % id/organ for paired rats 30 min post intravenous injection complex in Muscles. Type of series: ADME, organism-based, Muscle tissue.

Regarding “Hexakis[3,4,5-Trimethoxy-alpha-tolueneisonitrile]technetium Complex”, the ID/organ in the series on Rattus norvegicus [1] worked out at 0.13%; in the series on Rattus norvegicus [2], 0.04%; in the series on Rattus norvegicus [3] it was 3.83%; in the series on Rattus norvegicus [4], 65.1%; in the series with Rattus norvegicus [5], 2.29%; in the series on Rattus norvegicus [6] it was 0.17%. In addition, the ID/organ with Rattus norvegicus [7] is 0.61%; in the series with Rattus norvegicus [8], 0.76%; with Rattus norvegicus [9], 0.17%; in the series with Rattus norvegicus [10] it was 0.01%; in the series on Rattus norvegicus [11] it was 39.2%; with Rattus norvegicus [12], 0.59%. The substance further returned an ID/organ with Rattus norvegicus [13] of 3.02%.

Take “Hexakis[3,4-Dimethoxy-alpha-tolueneisonitrile]technetium Complex”: the ID/organ stood at 0.34% in the series on Rattus norvegicus [1]; 0.07% with Rattus norvegicus [2]; 2.25% in the series on Rattus norvegicus [3]; 33.5% in the series with Rattus norvegicus [4]; 4.72% in the series with Rattus norvegicus [5]; 0.1% in the series with Rattus norvegicus [6]. The ID/organ in the series on Rattus norvegicus [7] came out at 1.22%; with Rattus norvegicus [8], 1.35%; with Rattus norvegicus [9], 0.21%; with Rattus norvegicus [10], 0.02%; in the series on Rattus norvegicus [11], 44.2%; with Rattus norvegicus [12], 3.27%. The substance further came in with an ID/organ with Rattus norvegicus [13] of 2.48%.

“Hexakis[5-Methoxy-2-methyl-4-nitrobenzeneisonitrile]technetium Complex”: the ID/organ with Rattus norvegicus [1] is reported as 3.05%; with Rattus norvegicus [2], 0.03%; in the series on Rattus norvegicus [3], 1.13%; in the series with Rattus norvegicus [4], 3.96%; in the series on Rattus norvegicus [5], 5.59%; in the series on Rattus norvegicus [6], 0.14%. Besides, the ID/organ in the series with Rattus norvegicus [7] turned out to be 0.72%; with Rattus norvegicus [8], 0.77%; in the series on Rattus norvegicus [9], 0.32%; in the series with Rattus norvegicus [10], 0.03%; in the series with Rattus norvegicus [11], 71.9%; in the series on Rattus norvegicus [12], 6.88%. In the series on Rattus norvegicus [13], this substance gave an ID/organ of 1.28%.

Turning to “Hexakis[3-(hydroxymethyl)benzeneisonitrile]technetium Complex”, the ID/organ is on record as 1.85% in the series with Rattus norvegicus [1]; 0.05% in the series on Rattus norvegicus [2]; 2.98% in the series with Rattus norvegicus [3]; 13.8% in the series on Rattus norvegicus [4]; 3.6% in the series on Rattus norvegicus [5]; 0.12% with Rattus norvegicus [6]. In addition, the ID/organ came to 0.63% in the series on Rattus norvegicus [7]; 0.62% in the series with Rattus norvegicus [8]; 0.2% with Rattus norvegicus [9]; 0.01% in the series with Rattus norvegicus [10]; 62.2% in the series on Rattus norvegicus [11]; 3.39% in the series on Rattus norvegicus [12]. This substance also displayed an ID/organ with Rattus norvegicus [13] of 2.99%.

As to “Hexakis[3,4-Dimethoxybenzeneisonitrile]technetium Complex”, the ID/organ with Rattus norvegicus [1] is given as 4.5%; in the series on Rattus norvegicus [2], 0.07%; with Rattus norvegicus [3] it was 0.61%; in the series on Rattus norvegicus [4], 2.44%; with Rattus norvegicus [5], 4.38%; with Rattus norvegicus [6] it was 0.13%. For the same substance, the ID/organ turned out to be 1.89% with Rattus norvegicus [7]; 1.07% with Rattus norvegicus [8]; 0.4% in the series with Rattus norvegicus [9]; 0.02% with Rattus norvegicus [10]; 87.7% in the series on Rattus norvegicus [11]; 3.92% with Rattus norvegicus [12]. The ID/organ in the series with Rattus norvegicus [13] was determined as 4.67%.

As for “Hexakis[3,5-Dimethoxy-alpha-tolueneisonitrile]technetium Complex”, the ID/organ with Rattus norvegicus [1] stood at 3.35%; with Rattus norvegicus [2] it was 0.04%; with Rattus norvegicus [3], 0.3%; with Rattus norvegicus [4], 2.22%; in the series on Rattus norvegicus [5], 3.63%; in the series with Rattus norvegicus [6] it was 0.12%. Also, the ID/organ in the series on Rattus norvegicus [7] came to 0.87%; in the series on Rattus norvegicus [8], 0.43%; in the series with Rattus norvegicus [9] it was 0.2%; in the series on Rattus norvegicus [10], 0.02%; with Rattus norvegicus [11], 75.9%; in the series on Rattus norvegicus [12], 5.06%. Also, the ID/organ in the series on Rattus norvegicus [13] stood at 1.82%.

In the case of “Hexakis[3,4-(Methylenedioxy)benzeneisonitrile]technetium Complex”, the ID/organ in the series on Rattus norvegicus [1] stood at 1.82%; with Rattus norvegicus [2], 0.05%; with Rattus norvegicus [3], 0.12%; in the series with Rattus norvegicus [4], 0.38%; in the series with Rattus norvegicus [5], 4.73%; in the series on Rattus norvegicus [6] it was 0.03%. Also, the ID/organ with Rattus norvegicus [7] was 2.62%; in the series with Rattus norvegicus [8], 0.19%; in the series with Rattus norvegicus [9], 0.08%; in the series on Rattus norvegicus [10], 0.01%; in the series with Rattus norvegicus [11] it was 91.8%; in the series with Rattus norvegicus [12], 1.45%. Further, the ID/organ in the series with Rattus norvegicus [13] came out at 0.47%.

As to “Hexakis[4-Methoxy-alpha-tolueneisonitrile]technetium Complex”, the ID/organ amounted to 2.45% in the series with Rattus norvegicus [1]; 0.03% in the series on Rattus norvegicus [2]; 0.45% in the series on Rattus norvegicus [3]; 3.31% in the series on Rattus norvegicus [4]; 2.73% in the series on Rattus norvegicus [5]; 0.08% with Rattus norvegicus [6]. Also, the ID/organ in the series on Rattus norvegicus [7] amounted to 1.31%; with Rattus norvegicus [8], 0.58%; in the series on Rattus norvegicus [9], 0.24%; in the series with Rattus norvegicus [10], 0.02%; with Rattus norvegicus [11], 85.6%; in the series on Rattus norvegicus [12], 4.56%. The ID/organ with Rattus norvegicus [13] amounted to 1.92%.

Consider “Hexakis[2-(4-Methoxyphenyl)ethaneisonitrile]technetium Complex”, for which the ID/organ in the series on Rattus norvegicus [1] was 2.94%; with Rattus norvegicus [2] it was 0.03%; in the series with Rattus norvegicus [3], 0.19%; with Rattus norvegicus [4], 1.86%; in the series on Rattus norvegicus [5] it was 3.44%; in the series on Rattus norvegicus [6], 0.15%. Besides, the ID/organ with Rattus norvegicus [7] was 3.93%; in the series on Rattus norvegicus [8] it was 0.41%; with Rattus norvegicus [9] it was 0.26%; in the series with Rattus norvegicus [10], 0%; with Rattus norvegicus [11], 81.1%; in the series with Rattus norvegicus [12], 0.79%. This substance also showed an ID/organ with Rattus norvegicus [13] of 1.99%.

As to “Hexakis[3-Nitrobenzeneisonitrile]technetium Complex”, the ID/organ in the series with Rattus norvegicus [1] was 0.28%; in the series with Rattus norvegicus [2], 0.01%; in the series on Rattus norvegicus [3], 5.21%; with Rattus norvegicus [4], 42.9%; in the series with Rattus norvegicus [5], 5.74%; with Rattus norvegicus [6], 0.17%. The ID/organ in the series on Rattus norvegicus [7] came to 0.37%; in the series with Rattus norvegicus [8], 5.3%; in the series on Rattus norvegicus [9], 0.51%; in the series with Rattus norvegicus [10] it was 0.03%; in the series with Rattus norvegicus [11], 13.8%; in the series on Rattus norvegicus [12] it was 9.44%. Moreover, the ID/organ in the series with Rattus norvegicus [13] turned out to be 7.61%.

For the substance “Hexakis[3,4-(Methylenedioxy)-alpha-tolueneisonitrile]technetium Complex”, the ID/organ in the series with Rattus norvegicus [1] was found to be 2.78%; in the series with Rattus norvegicus [2], 0.07%; in the series on Rattus norvegicus [3], 0.61%; in the series on Rattus norvegicus [4] it was 5.75%; in the series with Rattus norvegicus [5], 4.29%; in the series with Rattus norvegicus [6] it was 0.15%. Besides, the ID/organ with Rattus norvegicus [7] came out at 3.04%; in the series on Rattus norvegicus [8], 0.6%; in the series on Rattus norvegicus [9] it was 0.26%; in the series on Rattus norvegicus [10], 0.01%; in the series on Rattus norvegicus [11], 73.8%; in the series on Rattus norvegicus [12], 4.19%. For the same substance, in the series with Rattus norvegicus [13], the ID/organ stood at 3.9%.
